Experimental data: patent EP0059980A1, “Use of an antimicrobial preservative in ophtalmics and the care of contact lenses” (NATEC Institut für naturwissenschaftlich- technische …, priority 1981, dated 1982)
In brackets after ≈: the same amount, converted by molar mass. Where two headings read alike, the source gives them in different places. One block for each compound: values may come before it.

What was measured:
[1] = test system: Aspergillus fumigatus; test: Minimal inhibitory concentration (MIC), turbidity method in peptone broth; format: cell-based
Text: (§1) Die antimikrobiellen Wirkungsspektren eines erfindungsgemäß vorgeschlagenen Wirkstoffes, nämlich des Laurinsäurecholinesterchlorids, und im Vergleich dazu von den homologen Essigsäure-, Capronsäure- und Palmitinsäurecholinesterchloriden sowie von den bekannten Konservierungsmitteln Adamantylcarbonsäurecholinesterchlorid und Chlor- 'hexidin-diacetat wurden durch Bestimmung der minimalen Hemmkonzentration nach der Trübungsmethode in Pepton-Nährlösung bei einem pH von 7,0 festgestellt. Diese Methode ist von K.H. Wallhäußer und H. Schmidt in "Sterilisation, Desinfektion, Konservierung, Chemotherapie", Stuttgart (1967), Seite 420-421 beschrieben. Die Ergebnisse sind in Tabelle 1 zusammengestellt.

[2] = test system: Candida albicans ATCC 10231; test: as above; format: cell-based
Text: as §1

[3] = test system: E. coli ATCC 11229; test: as above; format: cell-based; settings: Escherichia coli
Text: as §1

[4] = test system: Fusorium oxysporum; test: as above; format: cell-based
Text: as §1

[5] = test system: Staphylococcus aureus ATCC 25923; test: as above; format: cell-based
Text: as §1

[6] = test system: Streptococcus pyogenes; test: as above; format: cell-based
Text: as §1

[7] = test system: Pseudomonas aeruginosa; test: as above; format: cell-based; settings: Pepton-Nährlösung, pH 7,0
Text: as §1, with “Diese Methode ist von K.H. Wallhäußer und H. Schmidt in "Sterilisation, Desinfektion, Konservierung, Chemotherapie", Stuttgart (1967), Seite 420-421 beschrieben.” left out

[8] = test system: Bacillus cereus ATCC 11778; test: as above; format: cell-based
Text: as §1

[9] = test system: Bacillus subtilis ATCC 6633; test: as above; format: cell-based
Text: as §1

[10] = test system: Enterobacter aerogenes; test: as above; format: cell-based; settings: Klebsiella aerogenes
Text: as §1

[11] = test system: Paecilomyces Ehrlich; test: as above; format: cell-based
Text: as §1

[12] = test system: Paecilomyces variati; test: as above; format: cell-based
Text: as §1

[13] = test system: Proteus vulgaris; test: as above; format: cell-based
Text: as §1

[14] = test system: Staphylococcus epidermis ATCC 12228; test: as above; format: cell-based
Text: as §1

[15] = pancreatic juice
Experimental: (§3) Ferner wurde eine 1 %ige wäßrige Laurinsäurecholinesterchloridlösung in Gegenwart von Pankreassaft simulierten physiologischen Bedingungen (38°C) ausgesetzt und nach 1 Stunde und nach 24 Stunden Proben gezogen und auf entstandene freie Fettsäuren untersucht. Dazu wurden die Proben mit Petroläther extrahiert und im Extrakt ' die Fettsäuren mikroanalytisch bestimmt.

[16] = test system: Pseudomonas fluorescens; test: Minimal inhibitory concentration (MIC), turbidity method in peptone broth; format: cell-based; settings: Pepton-Nährlösung, pH 7,0
Text: as §1

[17] = Acute oral toxicity test; parameters: species or system Mäuse; settings: mouse, in vivo, black mice, mean (range in brackets), read-out: oraler LD 50-Wert
Text: Anhand des Laurinsäurecholinesterchlorids als Beispiel für die erfindungsgemäß verwendeten Laurinsäurecholinestersalze wurde ferner eine akute orale Toxizitätsprüfung durchgeführt, wobei schwarze Mäuse als Versuchstiere dienten. Dabei wurde gefunden, daß der orale LD 50-Wert im Mittel bei 3,15 (2,66 bis 3,74) g/kg Tiergewicht liegt.

[18] = test system: Ratten; test: Subacute oral toxicity test; format: in vivo; settings: rats, 20 and 50 mg per kg body weight
[19] = test system: Albino-Meerschweinchen (Pirlbright white); test: Direct skin irritation test, ointment applied daily for one week; format: in vivo; settings: 200 ppm in Vaseline ointment base, 12 guinea pigs, daily for one week on shorn flank
Experimental: (§2) Ferner wurde die Haut- und Schleimhautverträglichkeit von Laurinsäurecholinesterchlorid an Albino-Meerschweinchen aus einem leicht allergisierbaren Stamm (Pirlbright white) von 400 bis 700 g Gewicht und bei kleinwüchsigen Kaninchen von 1,5 bis 3 kg Gewicht geprüft. Die Tiere erhielten Standarddiät und Wasser nach Belieben. Die Raumtemperatur betrug etwa 20 °C, die Luftfeuchtigkeit etwa 50 %, die tägliche Belichtungsdauer 12 Stunden.
Die Prüfsubstanz wurde in einer Salbengrundlage aus Vaseline mit 200 ppm des Wirkstoffs auf direkte Hautreizung getestet. Bei 12 Meerschweinchen wurde die Präparation eine Woche lang täglich auf einem kurz geschorenen Bezirk an der Flanke aufgetragen und etwa 30 Sekunden eingerieben.

[20] = test system: Albino-Meerschweinchen (Pirlbright white); test: Skin sensitisation test (induction and provocation phase); format: in vivo; settings: 200 ppm in Vaseline; three weeks induction, 5 days pause, 3 days provocation; checked after 24 h, 2 and 3 days
Experimental: as §2
Daraufhin wurde bei den gleichen Tieren die lokale Anwendung der Prüfsubstanz auf drei Wochen ausgedehnt (Induktionsphase). Nach anschließender 5-tägiger Pause wurde die Prüfsubstanz an drei aufeinanderfolgenden Tagen auf einem nicht vorbehandelten kontralateralen kurzgeschorenen Kontrollbezirk eingerieben (Provokationsphase),.
Aufgrund dieser Versuche ergab sich kein Hinweis auf sensibilisierende Eigenschaften des Laurinsäurecholinesterchlorids.

[21] = test system: Kaninchenauge; test: Ocular irritation test according to Draize (mucous membrane tolerance); format: in vivo, Kaninchen; settings: 2.000 ppm in 0,9 % saline, 0,1 ml in conjunctival sac, eight rabbits
Experimental: as §2
Die Prüfung auf Schleimhautverträglichkeit wurde am Kaninchenauge vorgenommen. Die Prüfsubstanz wurde als Lösung von 2.000 ppm Laurinsäurecholinesterchlorid in 0,9 %iger wäßriger Kochsalzlösung im okkulären Reizwirkungstest nach Draize an acht Kaninchen auf Schleimhautverträglichkeit in der folgenden Weise geprüft.
0,1 ml der Testlösung wurden im Konjunktivalsack eines Tierauges unter Schließung von Ober- und Unterlid eingebracht. Man ließ die Lösung eine Minute lang einwirken. Das andere Auge wurde zur Kontrolle in gleicher Weise mit destilliertem Wasser behandelt.
Eine Minute nach der Applikation wurden bei der Hälfte der Tiere die behandelten Augen eine Minute lang mit '10 bis 20 ml lauwarmer physiologischer Kochsalzlösung naChgespült..Die Augen wurden anschließend bei allen behandelten Tieren geprüft.

[22] = Hydrolytic stability of aqueous solution kept boiling; format: physicochemical; settings: 5 % aqueous solution
Text: Die erfindungsgemäß vorgeschlagenen Laurinsäurecholinestersalze besitzen auch die erforderliche Stabilität und Beständigkeit. So wurde eine 5 %ige wäßrige Laurinsäurecholinesterchloridlösung 8 Stunden am Sieden gehalten. Danach wurde eine nur unwesentliche Zunahme des Säuregehalts der Trockensubstanz von 2,5 auf 3,9 % festgestellt. Demnach kann unter den Bedingungen, unter denen die erfindungsgemäß vorgeschlagenen Wirkstoffe normaler; weise als Konservierungsmittel eingesetzt werden, eine hydrolytische Spaltung des Wirkstoffes praktisch ausgeschlossen werden.

[23] = test system: Bakterien, Hefen und Schimmelpilze; test: Preservative challenge test according to USP XIX; format: cell-based; settings: 0,01 % in sterile aqueous solution; criteria of Wallhäußer for category I products, up to 28 days
Text: Als Beispiel für die erfindungsgemäß vorgesehenen Konservierungsmittel wurde Laurinsäurecholinesterchlorid einem Konservierungsbelastungstest nach der Vorschrift USP XIX unterworfen und mit bekannten Konservierungsmitteln, die in Kontaktlinsen-Pflegelösungen eingesetzt werden und dem gleichen Test unterworfen wurden, verglichen.. Die USP XIX schreibt vor, daß bei einem entsprechenden Belastungstest, bei dem man von einer Ausgangskeimzahl von […] ausgeht, ein'e Verminderung der Keimzahl innerhalb von 14 Tagen um 99,9 % bei den zugesetzten Bakterien erreicht wird und daß sich die zugesetzten Pilzsporen und Hefen innerhalb der gleichen Zeit nicht signifikant vermehren.
Um die antimikrobielle Wirkung der verschiedenen untersuchten Konservierungsmittel besser vergleichen zu können, wurden die Belastungstest bei jeweils gleicher Wirkstoffkonzentration (0,01 % in steriler wäßriger Lösung) und bei gleicher Ausgangsbelastung des jeweils eingesetzten Stammes durchgeführt. In den Tabellen 2 bis 5 sind die Keimzahlen nach jeweils 2 und 10 Minuten sowie nach 1 Stunde, 2 und 24 Stunden angegeben, in den Tabellen 6 bis 9 sind die Ergebnisse nach 1 Tag, 7, 14, 21 und 28 Tagen festgehalten, da die Keimzahlen während der weiteren Laufzeit bis zum 28. Tag bei guter Konservierung nicht mehr ansteigen dürfen.
Wie aus der Monographie von K.H. Wallhäußer, Sterilisation, Desinfektion, Konservierung, 2. […]

[24] = Hydrolysis in presence of pancreatic juice under simulated physiological conditions
Experimental: as §3

[25] = Pepton-Nährlösung, pH 7,0, read-out: MIC-Werte
[26] = ATCC10231, Candida albicans ATCC 10231, Pepton-Nährlösung, pH 7,0, read-out: MIC-Werte
[27] = ATCC11229, E. coli ATCC 11229, Pepton-Nährlösung, pH 7,0, read-out: MIC-Werte
[28] = Fusorium oxysporum, Pepton-Nährlösung, pH 7,0, read-out: MIC-Werte
[29] = ATCC25923, Staphylococcus aureus ATCC 25923, Pepton-Nährlösung, pH 7,0, read-out: MIC-Werte
[30] = Candida albicans, ATCC10231, pH 7, read-out: MIC-Werte
[31] = ATCC11229, pH 7, read-out: MIC-Werte
[32] = Staphylococcus aureus, ATCC25923, pH 7, read-out: MIC-Werte
[33] = Paecilomyces, pH 7, read-out: MIC-Werte

Compound: C[N+](C)(C)CCOC(=O)C12CC3CC(CC(C3)C1)C2 [Adamantylcarbonsäurecholinesterchlorid]
MIC [1, 25]: > 400 µg/mL
MIC [2, 26]: > 400 µg/mL
MIC [3, 27]: > 400 µg/mL
MIC [4, 28]: > 400 µg/mL
MIC [5, 29]: 200 µg/mL
MIC [6, 25]: 20 µg/mL
MIC [7]: > 400 µg/mL

Compound: CCCCCC(=O)OCC[N+](C)(C)C [Capronsäurecholinesterchlorid]
MIC [1, 25]: > 400 µg/mL
MIC [2, 26]: > 400 µg/mL
MIC [3, 27]: > 400 µg/mL
MIC [4, 28]: > 400 µg/mL
MIC [5, 29]: > 400 µg/mL
MIC [6, 25]: 100 µg/mL
MIC [7]: > 400 µg/mL

MIC [1, 25]: 12.5 µg/mL (≈ 24.7 µM)
MIC ([8]; ATCC11778, Bacillus cereus ATCC 11778, Pepton-Nährlösung, pH 7,0, read-out: MIC-Werte): 0.78 µg/mL (≈ 1.54 µM)
MIC ([9]; ATCC6633, Bacillus subtilis ATCC 6633, Pepton-Nährlösung, pH 7,0, read-out: MIC-Werte): 0.78 µg/mL (≈ 1.54 µM)
MIC [2, 26]: 3.13 µg/mL (≈ 6.19 µM)
MIC [3, 27]: 3.13 µg/mL (≈ 6.19 µM)
MIC ([10]; Enterobacter aerogenes, Pepton-Nährlösung, pH 7,0, read-out: MIC-Werte): 12.5 µg/mL (≈ 24.7 µM)
MIC [4, 28]: 12.5 µg/mL (≈ 24.7 µM)
MIC ([11]; Paecilomyces Ehrlich, Pepton-Nährlösung, pH 7,0, read-out: MIC-Werte): 0.78 µg/mL (≈ 1.54 µM)
MIC ([12]; Paecilomyces variati, Pepton-Nährlösung, pH 7,0, read-out: MIC-Werte): 1.56 µg/mL (≈ 3.09 µM)
MIC [13, 25]: 50 µg/mL (≈ 98.9 µM)
MIC [5, 29]: 1.56 µg/mL (≈ 3.09 µM)
MIC ([14]; ATCC12228, Staphylococcus epidermis ATCC 12228, Pepton-Nährlösung, pH 7,0, read-out: MIC-Werte): 0.78 µg/mL (≈ 1.54 µM)
MIC [6, 25]: 0.78 µg/mL (≈ 1.54 µM)
Compound: N=C(NCCCCCCNC(=N)NC(=N)Nc1ccc(Cl)cc1)NC(=N)Nc1ccc(Cl)cc1 [Chlorhexidin-diacetat]

Compound: CC(=O)OCC[N+](C)(C)C [Essigsäurecholinesterchlorid]
MIC ([1]; pH 7, read-out: MIC-Werte): > 400 µg/mL
MIC [2, 30]: > 400 µg/mL
MIC [3, 31]: > 400 µg/mL
MIC [4, 28]: > 400 µg/mL
MIC [5, 32]: > 400 µg/mL
MIC ([6]; pH 7, read-out: MIC-Werte): 100 µg/mL
MIC [7]: > 400 µg/mL

Abbauquote [15]: 13,8%
Compound: CCCCCCCC(=O)OCC(O)CO (stereo not drawn) [Glycerinmonocaprylat]

Compound: CCCCCCCCCCCC(=O)OCC[N+](C)(C)C [Laurinsäurecholinesterchlorid]
MIC ([1]; pH 7, read-out: MIC-Werte): 10 µg/mL
MIC ([8]; Bacillus cereus, ATCC11778, pH 7, read-out: MIC-Werte): 3.13 µg/mL
MIC ([9]; Bacillus subtilis, ATCC6633, pH 7, read-out: MIC-Werte): 0.78 µg/mL
MIC [2, 30]: 10 µg/mL
MIC [3, 31]: 10 µg/mL
MIC ([10]; pH 7, read-out: MIC-Werte): 100 µg/mL
MIC ([4]; pH 7, read-out: MIC-Werte): 3.13 µg/mL
MIC [11, 33]: 0.78 µg/mL
MIC [12, 33]: 0.78 µg/mL
MIC ([13]; pH 7, read-out: MIC-Werte): 200 µg/mL
MIC [16]: 2.5 µg/mL
MIC [5, 32]: 2.5 µg/mL
MIC ([14]; Staphylococcus, ATCC12228, pH 7, read-out: MIC-Werte): 0.78 µg/mL
MIC ([6]; pH 7, read-out: MIC-Werte): 0.16 µg/mL
MIC [7]: 20 µg/mL
LD50 [17]: 3150 mg/kg
Wirkungen bei subakuter oraler Toxizitätsprüfung [18]: keine Wirkungen
direkte Hautreizung (Hautreaktionen) [19]: keine Hautreakticnen
Reaktion im Kontrollbezirk (Sensibilisierung) [20]: in keinem Falle eine Reaktion
Reaktion im Sinne von Rötung, Schwellung, Sekretion oder Hornhautveränderung ([21]; 1 min): In keinem Falle kam es zu einer Reaktion
spontane Abwehrreaktionen [21]: keine spontanen Abwehrreaktionen
Säuregehalt der Trockensubstanz ([22]; after 8 hours boiling): 3,9%
Säuregehalt der Trockensubstanz ([22]; before boiling): 2,5%
Bedingungen für ausreichende Konservierung (Abfall der Keimzahl) [23]: weit übertroffen
Hydrolyse im Kontrollversuch ohne Pankreassaft ([24]; control without pancreatic juice, 38°C): keine Hydrolyse
metabolised at 1 h ([24]; pancreatic juice): 1.5%
metabolised at 24 h ([24]; pancreatic juice): 2.5%

Compound: CCCCCCCCCCCCCCCC(=O)OCC[N+](C)(C)C [Palmitinsäurecholinesterchlorid]
MIC [1, 25]: 100 µg/mL
MIC [2, 26]: 100 µg/mL
MIC [3, 27]: > 400 µg/mL
MIC [4, 28]: > 400 µg/mL
MIC [5, 29]: 2.5 µg/mL
MIC [6, 25]: 1.25 µg/mL
MIC [7]: > 400 µg/mL
